From patent publication EP0429333B1, “Process for producing oxazopyrroloquinolines, novel oxazopyrroloquinolines, and use of oxazopyrroloquinolines” (priority 1989, dated 1991)

Tests used:
kidney = test: Toxicity to kidney determined by blood examination; type: in vivo, mice; conditions: serum
Summary of the method: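 One day after dosing, mice fasted 18 h with water only, then blood taken. Serum glucose, urea nitrogen and creatinine measured by dry-chemistry slides; values are means of eight mice.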

[1] = system: carbon tetrachloride (CCl4)-induced liver diseases; test: Pharmacological activity on carbon tetrachloride-induced liver diseases; type: in vivo, SD rats; conditions: CCl4 1 ml/kg rat; for GPT: Table 26: CCl4 only 1521, no administration 24; for Total bilirubin: Table 26: CCl4 only 1.5, no administration 0.9; for GOT: Table 26: CCl4 only 3266, no administration 140
Method: Twentyfive SD rats (male, 7 weeks old, body weight: about 220 g; supplied by Japan Charles River Co.) were divided to five groups (A-E) each consisting of five rats.
All rats were fasted for 16 hours and 1.1 ml of solutions containing 0.4 mg/ml, 1.0 mg/ml and 2.0 mg/ml of OPQ were intraperitoneally administered to the rats of groups C, D and E, respectively and furthermore, after 40 minutes, OPQ in the same dosage as above was intraperitoneally administered, respectively. In these cases, OPQ was used as a solution in physiological saline. To the rats of group B was intraperitoneally administered 1.1 ml of physiological saline in place of the OPQ solution.
Furthermore, after 20 minutes, 2.2 ml of 10 % carbon tetrachloride solution (in olive oil) was administered to stomach of the rats of groups B-E. Neither OPQ nor carbon tetrachloride was administered to the rats of group A.
After 24 hours from administration of carbon tetrachloride, blood was collected from abdominal aorta and serum was obtained by centrifugal separation.
GPT, GOT and amount of total bilirubin were measured by clinical examination reagent (trademark: FUJI Dry Chemslide manufactured by Fuji Photo Film Co., Ltd.). The results are shown in Table 26 by average value of five rats.

male SPF-ICR mice = test: Acute toxicity test
Method: (§1) (1) Acute toxicity test: • (i) To male SPF-ICR mice of 5 weeks old (supplied by Charles River Co.) were intraperitoneally administered PQQ·2Na and OPQs in the dosages of 20, 40, 80, 160 and 200 mg/kg body weight of mouse, respectively and they were bred at 25°C for 14 days. OPQ, 1-methylpropyl OPQ, 2-methylthioethyl OPQ, and benzyl OPQ were used as the OPQs. One group consisted of 8 mice. […] One group consisted of 8 mice. […] They were bred at 25°C for 14 days. One group consisted of eight mice. […] (2) Toxicity to kidney (i) Toxicity to kidney determined by urine examination: In the same manner as in the acute toxicity test, PQQ·2Na and OPQs were respectively intraperitoneally administered to mice and these mice were bred. Urine was collected every day and concentration of glucose in urine was obtained using Uristex II (manufactured by Miles·Sankyo Co.). […]

Acute toxicity test = conditions: mouse, in vivo, ip
Method: as §1

[2] = molecular target: T1, aldose reductase of rabbit lens (Oryctolagus cuniculus, UniProt P15122); test: Inhibitory effect on aldose reductase of lens; type: biochemical; conditions: read-out: Degree of inhibition for aldose reductase (%)
T1 construct: to obtain electrophoretically homogeneous aldose reductase; from tissue; host or cells: rabbit lens
Summary of the method: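 Electrophoretically homogeneous aldose reductase purified from rabbit lens was assayed with NADPH (0.05 ml of 3 mM stock) and DL-glyceraldehyde in 0.1 M phosphate buffer pH 6.2 at 25 °C. Activity was followed as the decrease in A340 over time. Inhibition was calculated against activity without inhibitor, with compounds tested at various concentrations.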

[3] = 2 mg/kg rat twice intraperitoneally
[4] = 5 mg/kg rat twice intraperitoneally
[5] = 10 mg/kg rat twice intraperitoneally

Which Creatinine (kidney; 40 mg/kg mouse intraperitoneally, Table 2, no administration 0.8) does the source give for `O=C(O)c1cc(C(=O)O)c2c(n1)c1ncoc1c1cc(C(=O)O)[nH]c12` [OPQ, oxazopyrroloquinoline] here?
The Creatinine was 0.7 mg/dL.

And the Urea nitrogen (kidney; 40 mg/kg mouse intraperitoneally, Table 2, no administration 24)?
The Urea nitrogen was 25 mg/dL.

And the Glucose (kidney; 40 mg/kg mouse intraperitoneally, Table 2, no administration 78)?
Its Glucose is 90 mg/dL.

What about the Creatinine (kidney; 80 mg/kg mouse intraperitoneally, Table 2, no administration 0.8) of the same molecule?
The Creatinine was 0.8 mg/dL.

What about the Urea nitrogen (kidney; 80 mg/kg mouse intraperitoneally, Table 2, no administration 24) of the same molecule?
Its Urea nitrogen is 23 mg/dL.

What about the Glucose (kidney; 80 mg/kg mouse intraperitoneally, Table 2, no administration 78) of the same molecule?
Its Glucose is 86 mg/dL.

And the Creatinine (kidney; 150 mg/kg mouse intraperitoneally, Table 3, no administration 0.7)?
The Creatinine was 0.8 mg/dL.

What about the Urea nitrogen (kidney; 150 mg/kg mouse intraperitoneally, Table 3, no administration 28) of the same molecule?
Its Urea nitrogen is 32 mg/dL.

And the Glucose (kidney; 150 mg/kg mouse intraperitoneally, Table 3, no administration 105)?
The Glucose was 106 mg/dL.

And the Creatinine (kidney; 160 mg/kg mouse intraperitoneally, Table 2, no administration 0.8)?
The Creatinine was 0.7 mg/dL.

And the Urea nitrogen (kidney; 160 mg/kg mouse intraperitoneally, Table 2, no administration 24)?
Its Urea nitrogen is 27 mg/dL.

What about the Glucose (kidney; 160 mg/kg mouse intraperitoneally, Table 2, no administration 78) of the same molecule?
The Glucose was 90 mg/dL.

And the Creatinine (kidney; 200 mg/kg mouse intraperitoneally, Table 2, no administration 0.8)?
The Creatinine was 0.8 mg/dL.

And the Urea nitrogen (kidney; 200 mg/kg mouse intraperitoneally, Table 2, no administration 24)?
Its Urea nitrogen is 28 mg/dL.

And the Glucose (kidney; 200 mg/kg mouse intraperitoneally, Table 2, no administration 78)?
The Glucose was 85 mg/dL.

And the Creatinine (kidney; 300 mg/kg mouse intraperitoneally, Table 3, no administration 0.7)?
The Creatinine was 0.8 mg/dL.

And the Urea nitrogen (kidney; 300 mg/kg mouse intraperitoneally, Table 3, no administration 28)?
Its Urea nitrogen is 29 mg/dL.

And the Glucose (kidney; 300 mg/kg mouse intraperitoneally, Table 3, no administration 105)?
The Glucose was 80 mg/dL.

And the Creatinine (kidney; 400 mg/kg mouse intraperitoneally, Table 3, no administration 0.7)?
The Creatinine was 0.8 mg/dL.

And the Urea nitrogen (kidney; 400 mg/kg mouse intraperitoneally, Table 3, no administration 28)?
The Urea nitrogen was 30 mg/dL.

And the Glucose (kidney; 400 mg/kg mouse intraperitoneally, Table 3, no administration 105)?
Its Glucose is 94 mg/dL.

What about the Creatinine (kidney; 600 mg/kg mouse intraperitoneally, Table 3, no administration 0.7) of the same molecule?
The Creatinine was 0.8 mg/dL.

What about the Urea nitrogen (kidney; 600 mg/kg mouse intraperitoneally, Table 3, no administration 28) of the same molecule?
Its Urea nitrogen is 34 mg/dL.

What about the Glucose (kidney; 600 mg/kg mouse intraperitoneally, Table 3, no administration 105) of the same molecule?
Its Glucose is 74 mg/dL.

And the GPT ([1]; 2 mg/kg rat twice intraperitoneally, serum after 24 hours)?
Its GPT is 1057 U/l.

What about the Total bilirubin [1, 3] of the same molecule?
The Total bilirubin was 1.2 mg/dL.

And the GOT [1, 3]?
Its GOT is 2402 U/l.

And the Total bilirubin [1, 4]?
Its Total bilirubin is 1.2 mg/dL.

What about the GPT [1, 4] of the same molecule?
The GPT was 553 U/l.

What about the GOT [1, 4] of the same molecule?
Its GOT is 1892 U/l.

And the Total bilirubin [1, 5]?
Its Total bilirubin is 1.1 mg/dL.

What about the GPT [1, 5] of the same molecule?
The GPT was 650 U/l.

What about the GOT [1, 5] of the same molecule?
Its GOT is 1907 U/l.

And the death of mice (male SPF-ICR mice; 0.1 - 0.4 g/kg intraperitoneally, 8 mice per group, 14 days)?
Its death of mice is “All mice survived”.

And the death of mice (male SPF-ICR mice; 0.8 g/kg intraperitoneally, 8 mice, 14 days)?
Its death of mice is “two mice died”.

And the death of mice (male SPF-ICR mice; 1.2 g/kg intraperitoneally, 8 mice, 14 days)?
Its death of mice is “six mice died”.

What about the death of mice (male SPF-ICR mice; mouse, in vivo) of the same molecule?
Its death of mice is “no mice died”.

And the death of mice (male SPF-ICR mice; orally 1.0 g, 1.5 g or 2.0 g/kg mouse, 8 mice per group, 14 days)?
The death of mice was “No mice died”.

What about the LD50 at 336 h (Acute toxicity test) of the same molecule?
Its LD50 at 336 h is about 1000 mg/kg.

What about the inhibition at 0.1 µM ([2]; concentration 1x10^-7 M) of the same molecule?
Its inhibition at 0.1 µM is 43.2%.

What about the inhibition at 0.2 µM ([2]; concentration 2x10^-7 M) of the same molecule?
Its inhibition at 0.2 µM is 54.5%.

What about the inhibition at 0.5 µM ([2]; concentration 5x10^-7 M) of the same molecule?
The inhibition at 0.5 µM was 63.1%.

What about the inhibition at 0.05 µM ([2]; concentration 5x10^-8 M) of the same molecule?
Its inhibition at 0.05 µM is 31%.
